Assay results published in patent US20260193238A1, “PHARMACEUTICAL COMPOUNDS AS PARP7 AND/OR PARP1 INHIBITORS” (Duke Street Bio Limited, priority 2022, published 2026).

What follows are molecules tested against PARP1 (Homo sapiens, UniProt P09874) (assay: PARP1 biochemical DELFIA assay (auto-PARylation)). Conditions: Table 1A.
Chain of PARP1 (P09874 whole entry): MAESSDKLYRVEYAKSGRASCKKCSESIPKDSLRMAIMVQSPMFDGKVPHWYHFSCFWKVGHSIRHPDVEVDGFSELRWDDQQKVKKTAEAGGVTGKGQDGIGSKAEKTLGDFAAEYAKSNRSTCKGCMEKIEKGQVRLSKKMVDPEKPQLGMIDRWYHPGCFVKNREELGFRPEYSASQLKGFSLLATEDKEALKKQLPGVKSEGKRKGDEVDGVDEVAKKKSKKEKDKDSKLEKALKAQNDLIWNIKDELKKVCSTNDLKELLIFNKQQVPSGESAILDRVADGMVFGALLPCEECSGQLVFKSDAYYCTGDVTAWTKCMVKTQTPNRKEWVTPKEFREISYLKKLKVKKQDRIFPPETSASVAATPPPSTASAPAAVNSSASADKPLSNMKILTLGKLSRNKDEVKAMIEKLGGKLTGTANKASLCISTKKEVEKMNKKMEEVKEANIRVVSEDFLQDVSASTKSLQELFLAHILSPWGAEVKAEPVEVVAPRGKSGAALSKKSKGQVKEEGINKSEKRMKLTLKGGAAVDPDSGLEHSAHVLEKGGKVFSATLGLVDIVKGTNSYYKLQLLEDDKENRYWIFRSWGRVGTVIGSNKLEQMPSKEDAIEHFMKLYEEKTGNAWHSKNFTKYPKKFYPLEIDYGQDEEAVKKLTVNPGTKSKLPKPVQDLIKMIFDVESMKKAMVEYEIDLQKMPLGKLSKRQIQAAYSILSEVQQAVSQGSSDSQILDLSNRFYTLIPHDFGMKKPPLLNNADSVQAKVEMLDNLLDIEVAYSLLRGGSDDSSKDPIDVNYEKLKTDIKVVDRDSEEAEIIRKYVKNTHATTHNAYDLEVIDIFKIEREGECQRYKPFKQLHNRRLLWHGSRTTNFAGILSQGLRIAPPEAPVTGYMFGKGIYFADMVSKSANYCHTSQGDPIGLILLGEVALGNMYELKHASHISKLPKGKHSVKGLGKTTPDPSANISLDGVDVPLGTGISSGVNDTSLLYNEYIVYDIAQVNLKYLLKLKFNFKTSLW
Method: Prior to assay, wells were washed 3×5 min in coating wash buffer.
% data was fitted to a non-linear regression equation (log inhibitor vs response-variable slope 4-parameters) to obtain IC50 values.

For `CN(C(=O)CN1CCCC1c1cc(C(F)(F)F)c(=O)[nH]n1)C1CCN(c2ncc(C(F)(F)F)cn2)CC1` (single isomer, unassigned) [Compound 34b], which IC50 is on record?
The IC50 was 1000 to 10000 nM.

`O=C(CN1CCCC1c1cc(C(F)(F)F)c(=O)[nH]n1)N1CCN(c2ncc(Cl)cn2)CC1` (single isomer, unassigned) [Compound 35a] was tested. Which IC50 did it give?
Its IC50 is 10 to 100 nM.

Which IC50 does the source give for `O=C(CN1CCCC1c1cc(C(F)(F)F)c(=O)[nH]n1)N1CCN(c2ncc(Cl)cn2)CC1` (single isomer, unassigned) [Compound 35b] here?
Its IC50 is 1000 to 10000 nM.

Which IC50 does the source give for `N#Cc1cnc(N2CCN(C(=O)CN3CCCC3c3cc(C(F)(F)F)c(=O)[nH]n3)CC2)nc1` (single isomer, unassigned) [Compound 36a] here?
The IC50 was 10 to 100 nM.

For `CNC(=O)c1ccc(N2CCN(C(=O)CN3CCCC3c3cc(C(F)(F)F)c(=O)[nH]n3)CC2)cn1` (single isomer, unassigned) [Compound 37b], which IC50 is on record?
The IC50 was 1000 to 10000 nM.

With `O=C(CN1CCCC1c1n[nH]c(=O)c2ccccc12)N1CCN(c2ncc(C(F)(F)F)cn2)CC1` (single isomer, unassigned) [Compound 38a, 4-(1-(2-oxo-2-(4-(5-(trifluoromethyl)pyrimidin-2-yl)piperazin-1-yl)ethyl)pyrrolidin-2-yl)phthalazin-1(2H)-one] as the molecule, how does the IC50 read?
The IC50 was 100 to 1000 nM.

Which IC50 does the source give for `O=C(CN1CCCC1c1n[nH]c(=O)c2ccccc12)N1CCN(c2ncc(C(F)(F)F)cn2)CC1` (single isomer, unassigned) [Compound 38b, 4-(1-(2-oxo-2-(4-(5-(trifluoromethyl)pyrimidin-2-yl)piperazin-1-yl)ethyl)pyrrolidin-2-yl)phthalazin-1(2H)-one] here?
The IC50 was 1000 to 10000 nM.

With `CCc1cc(C2CCCN2CC(=O)N2CCN(c3ncc(C(F)(F)F)cn3)CC2)n[nH]c1=O` (single isomer, unassigned) [Compound 40a] as the molecule, how does the IC50 read?
Its IC50 is 10 to 100 nM.

Which IC50 does the source give for `CCc1cc(C2CCCN2CC(=O)N2CCN(c3ncc(C(F)(F)F)cn3)CC2)n[nH]c1=O` (single isomer, unassigned) [Compound 40b] here?
Its IC50 is 1000 to 10000 nM.

With `O=C(CN1CCCC1c1cc(C(F)(F)F)c(=O)[nH]n1)N1CCN(c2ccc(Cl)cn2)CC1` (single isomer, unassigned) [Compound 41a] as the molecule, how does the IC50 read?
The IC50 was 10 to 100 nM.

With `O=C(CN1CCCC1c1cc(C(F)(F)F)c(=O)[nH]n1)N1CCN(c2ccc(Cl)cn2)CC1` (single isomer, unassigned) [Compound 41b] as the molecule, how does the IC50 read?
The IC50 was 1000 to 10000 nM.

How did the IC50 turn out when `O=C(CN1CCCC1c1cc(C(F)(F)F)c(=O)[nH]n1)N1CCN(c2ccc(C(F)(F)F)cn2)CC1` (single isomer, unassigned) [Compound 42a] was run?
The IC50 was 1000 to 10000 nM.

For `O=C(CN1CCCC1c1cc(C(F)(F)F)c(=O)[nH]n1)N1CCN(c2ccc(C(F)(F)F)cn2)CC1` (single isomer, unassigned) [Compound 42b], which IC50 is on record?
Its IC50 is 10 to 100 nM.

`O=C(CN1CCCC1c1cc(C(F)(F)F)c(=O)[nH]n1)N1CCN(c2ncc(F)cn2)CC1` (single isomer, unassigned) [Compound 43a] was tested. Which IC50 did it give?
Its IC50 is 10 to 100 nM.

Which IC50 does the source give for `O=C(CN1CCCC1c1cc(C(F)(F)F)c(=O)[nH]n1)N1CCN(c2ncc(F)cn2)CC1` (single isomer, unassigned) [Compound 43b] here?
The IC50 was 1000 to 10000 nM.

How did the IC50 turn out when `O=C(CN1CCCC1c1cc(C(F)(F)F)c(=O)[nH]n1)N1CCN(c2cnc(C(F)(F)F)cn2)CC1` (single isomer, unassigned) [Compound 45a] was run?
Its IC50 is 10 to 100 nM.

`O=C(CN1CCCC1c1cc(C(F)(F)F)c(=O)[nH]n1)N1CCN(c2ccc(F)cn2)CC1` (single isomer, unassigned) [Compound 46a] was tested. Which IC50 did it give?
Its IC50 is 10 to 100 nM.

How did the IC50 turn out when `O=C(CN1CCCC1c1cc(C(F)(F)F)c(=O)[nH]n1)N1CCN(c2ccc(F)cn2)CC1` (single isomer, unassigned) [Compound 46b] was run?
The IC50 was 100 to 1000 nM.

Which IC50 does the source give for `CNC(=O)c1cnc(N2CCN(C(=O)CN3CCCC3c3cc(C(F)(F)F)c(=O)[nH]n3)CC2)cn1` (single isomer, unassigned) [Compound 54a] here?
The IC50 was 100 to 1000 nM.

Which IC50 does the source give for `CNC(=O)c1ccc(N2CCN(C(=O)CN3CCCC3c3cc(C(F)(F)F)c(=O)[nH]n3)CC2)nc1` (single isomer, unassigned) [Compound 55a] here?
Its IC50 is 1000 to 10000 nM.

Which IC50 does the source give for `CNC(=O)c1ccc(N2CCN(C(=O)CN3CCCC3c3cc(C(F)(F)F)c(=O)[nH]n3)CC2)nc1` (single isomer, unassigned) [Compound 55b] here?
The IC50 was 100 to 1000 nM.

Which IC50 does the source give for `CNC(=O)c1ccc(N2CCN(C(=O)CCN3CCC3c3cc(C(F)(F)F)c(=O)[nH]n3)CC2)cn1` (single isomer, unassigned) [Compound 56b] here?
Its IC50 is 100 to 1000 nM.

How did the IC50 turn out when `CCc1cc(C2CCCN2CC(=O)N2CCN(c3ncc(C(F)(F)F)cn3)CC2)c[nH]c1=O` (single isomer, unassigned) [Compound 57b] was run?
The IC50 was 1000 to 10000 nM.

How did the IC50 turn out when `O=C(CN1CCCC1c1c[nH]c(=O)c(C(F)(F)F)c1)N1CCN(c2ncc(C(F)(F)F)cn2)CC1` (single isomer, unassigned) [Compound 60a, 5-(1-(2-oxo-2-(4-(5-(trifluoromethyl)pyrimidin-2-yl)piperazin-1-yl)ethyl)pyrrolidin-2-yl)-3-(trifluoromethyl)pyridin-2(1H)-one] was run?
Its IC50 is 10 to 100 nM.

For `O=C(CN1CCCC1c1c[nH]c(=O)c(C(F)(F)F)c1)N1CCN(c2ncc(C(F)(F)F)cn2)CC1` (single isomer, unassigned) [Compound 60b, 5-(1-(2-oxo-2-(4-(5-(trifluoromethyl)pyrimidin-2-yl)piperazin-1-yl)ethyl)pyrrolidin-2-yl)-3-(trifluoromethyl)pyridin-2(1H)-one], which IC50 is on record?
Its IC50 is 100 to 1000 nM.

With `O=C(CN1CCN(c2ncc(C(F)(F)F)cn2)CC1)N1CCCC1c1c[nH]c(=O)c(C(F)(F)F)c1` (single isomer, unassigned) [Compound 63a] as the molecule, how does the IC50 read?
The IC50 was 10 to 100 nM.

For `O=C(CN1CCCCC1c1cc(C(F)(F)F)c(=O)[nH]n1)N1CCN(c2ncc(C(F)(F)F)cn2)CC1` (single isomer, unassigned) [Compound 66a], which IC50 is on record?
The IC50 was 100 to 1000 nM.

For `O=C(CN1CCCCC1c1cc(C(F)(F)F)c(=O)[nH]n1)N1CCN(c2ncc(C(F)(F)F)cn2)CC1` (single isomer, unassigned) [Compound 66b], which IC50 is on record?
The IC50 was over 10000 nM.

For `O=C(CN1CCCC1c1cc(C(F)(F)F)c(=O)[nH]n1)N1CCN(c2ncc(C3CC3)cn2)CC1` (single isomer, unassigned) [Compound 69a], which IC50 is on record?
Its IC50 is 10 to 100 nM.

`O=C(CN1CCCC1c1cc(C(F)(F)F)c(=O)[nH]n1)N1CCN(c2ncc(C3CC3)cn2)CC1` (single isomer, unassigned) [Compound 69b] was tested. Which IC50 did it give?
The IC50 was 1000 to 10000 nM.

Which IC50 does the source give for `O=C(CN1CCCC1c1cc(C(F)(F)F)c(=O)[nH]n1)N1CCC(c2ncc(C(F)(F)F)cn2)CC1` (single isomer, unassigned) [Compound 70a] here?
Its IC50 is 1000 to 10000 nM.

For `N#Cc1ccc(N2CCN(C(=O)CN3CCCC3c3cc(C(F)(F)F)c(=O)[nH]n3)CC2)cc1` (single isomer, unassigned) [Compound 71b], which IC50 is on record?
Its IC50 is 10 to 100 nM.

For `O=C(CN1CCCC1c1cc(C(F)(F)F)c(=O)[nH]n1)N1CCN(c2ncc(OC(F)(F)F)cn2)CC1` (single isomer, unassigned) [Compound 72b], which IC50 is on record?
Its IC50 is at most 10 nM.

How did the IC50 turn out when `CNC(=O)c1ccc(N2CCN(C(=O)CCN3CCCC3c3c[nH]c(=O)c(C(F)(F)F)c3)CC2)cn1` (single isomer, unassigned) [Compound 73b] was run?
The IC50 was 1000 to 10000 nM.

Which IC50 does the source give for `O=C(CN1CCCC1c1c[nH]c(=O)c(C(F)(F)F)c1)N1CCN(c2ncc(Cl)cn2)CC1` (single isomer, unassigned) [Compound 74a] here?
The IC50 was 10 to 100 nM.

How did the IC50 turn out when `O=C(CN1CCCC1c1c[nH]c(=O)c(C(F)(F)F)c1)N1CCN(c2ncc(Cl)cn2)CC1` (single isomer, unassigned) [Compound 74b] was run?
The IC50 was 1000 to 10000 nM.

Which IC50 does the source give for `O=C(CN1CCCC1c1cc(C(F)(F)F)c(=O)[nH]n1)C1CCN(c2ncc(C(F)(F)F)cn2)CC1` (single isomer, unassigned) [Compound 75a] here?
Its IC50 is 10 to 100 nM.

Which IC50 does the source give for `O=C(CN1CCCC1c1cc(C(F)(F)F)c(=O)[nH]n1)C1CCN(c2ncc(C(F)(F)F)cn2)CC1` (single isomer, unassigned) [Compound 75b] here?
The IC50 was over 10000 nM.

`N#Cc1cnc(N2CCN(C(=O)CN3CCCC3c3c[nH]c(=O)c(C(F)(F)F)c3)CC2)nc1` (single isomer, unassigned) [Compound 76a] was tested. Which IC50 did it give?
The IC50 was 1000 to 10000 nM.

How did the IC50 turn out when `N#Cc1cnc(N2CCN(C(=O)CN3CCCC3c3c[nH]c(=O)c(C(F)(F)F)c3)CC2)nc1` (single isomer, unassigned) [Compound 76b] was run?
Its IC50 is 100 to 1000 nM.

With `N#Cc1ccc(N2CCN(C(=O)CN3CCCC3c3c[nH]c(=O)c(C(F)(F)F)c3)CC2)nc1` (single isomer, unassigned) [Compound 77a] as the molecule, how does the IC50 read?
Its IC50 is 1000 to 10000 nM.

How did the IC50 turn out when `N#Cc1ccc(N2CCN(C(=O)CN3CCCC3c3c[nH]c(=O)c(C(F)(F)F)c3)CC2)nc1` (single isomer, unassigned) [Compound 77b] was run?
Its IC50 is 100 to 1000 nM.

For `O=C(CN1CCCC1c1c[nH]c(=O)c(Cl)c1)N1CCN(c2ncc(C(F)(F)F)cn2)CC1` (single isomer, unassigned) [Compound 78a, 3-chloro-5-(1-(2-oxo-2-(4-(5-(trifluoromethyl)pyrimidin-2-yl)piperazin-1-yl)ethyl)pyrrolidin-2-yl)pyridin-2(1H)-one], which IC50 is on record?
Its IC50 is 100 to 1000 nM.

With `O=C(CN1CCCC1c1c[nH]c(=O)c(Cl)c1)N1CCN(c2ncc(C(F)(F)F)cn2)CC1` (single isomer, unassigned) [Compound 78b, 3-chloro-5-(1-(2-oxo-2-(4-(5-(trifluoromethyl)pyrimidin-2-yl)piperazin-1-yl)ethyl)pyrrolidin-2-yl)pyridin-2(1H)-one] as the molecule, how does the IC50 read?
Its IC50 is over 10000 nM.

`O=C(CN1CCCC1c1cc(C(F)(F)F)c(=O)[nH]n1)N1CCN(c2ccc(C3CC3)cn2)CC1` (single isomer, unassigned) [Compound 79a] was tested. Which IC50 did it give?
The IC50 was 10 to 100 nM.

How did the IC50 turn out when `O=C(CN1CCCC1c1cc(C(F)(F)F)c(=O)[nH]n1)N1CCN(c2cc(Cl)c(F)cn2)CC1` (single isomer, unassigned) [Compound 80b] was run?
The IC50 was 10 to 100 nM.

How did the IC50 turn out when `O=C(CN1CCCC1c1cc(C(F)(F)F)c(=O)[nH]n1)N1CCN(c2ccc(OC(F)(F)F)cn2)CC1` (single isomer, unassigned) [Compound 81b] was run?
The IC50 was 10 to 100 nM.

How did the IC50 turn out when `CC(C)(C)c1cnc(N2CCN(C(=O)CN3CCCC3c3cc(C(F)(F)F)c(=O)[nH]n3)CC2)nc1` (single isomer, unassigned) [Compound 82a] was run?
The IC50 was 10 to 100 nM.

`CC(C)(C)c1cnc(N2CCN(C(=O)CN3CCCC3c3cc(C(F)(F)F)c(=O)[nH]n3)CC2)nc1` (single isomer, unassigned) [Compound 82b] was tested. Which IC50 did it give?
Its IC50 is 1000 to 10000 nM.

`O=C(CN1CCCC1c1cc(C(F)(F)F)c(=O)[nH]n1)N1CCN(c2ncc(F)cc2F)CC1` (single isomer, unassigned) [Compound 83a] was tested. Which IC50 did it give?
Its IC50 is 100 to 1000 nM.
